Measurements published in ChEMBL document CHEMBL1201862, “PubChem BioAssay data set” (2004).
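Dose response: 5 concentrations. Exposure: 48 h. Format: 96-well plates. Endpoint: linear interpolation; highest concentration if not reached. At the GI50, growth is halved.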 Active and inactive are the calls of the source. Cut-off read from the data, not from the text of the source: active = GI50 up to about 1.1 µM and inactive = higher.

How the values were obtained:
Assay in all cases: DTP human tumour cell line panel, 48 h
[1] = test system: HCT-116
[2] = test system: OVCAR-8
[3] = test system: MDA-MB-435
[4] = test system: OVCAR-5
[5] = test system: UACC-257
[6] = test system: OVCAR-3
[7] = test system: M14
[8] = test system: MCF7
[9] = test system: MDA-MB-231
[10] = test system: BT-549
[11] = test system: HOP-62
[12] = test system: HL-60
[13] = test system: A498
[14] = test system: A549
[15] = test system: Malme-3M
[16] = test system: SK-MEL-28
[17] = test system: SF-268
[18] = test system: SK-MEL-5
[19] = test system: SK-OV-3
[20] = test system: NCI-H226

Row | Compound | GI50 [1] | GI50 [2] | GI50 [3] | GI50 [4] | GI50 [5] | GI50 [6] | GI50 [7] | GI50 [8] | GI50 [9] | GI50 [10] | GI50 [11] | GI50 [12] | GI50 [13] | GI50 [14] | GI50 [15] | GI50 [16] | GI50 [17] | GI50 [18] | GI50 [19] | GI50 [20]
1 | CCN1CC2(C)CCC(OC)C34C5CC6CCC(O)(C5C(=O)O6)C(C(O)C23)C14 (stereo unspecified) | > 100 µM (inactive) | > 100 µM (inactive) | > 100 µM (inactive) | > 100 µM (inactive) | > 100 µM (inactive) | > 100 µM (inactive) | > 100 µM (inactive) | > 100 µM (inactive) | > 100 µM (inactive) | > 100 µM (inactive) | > 100 µM (inactive) | > 100 µM (inactive) | > 100 µM (inactive) | > 100 µM (inactive) | > 100 µM (inactive) | > 100 µM (inactive) | > 100 µM (inactive) | > 100 µM (inactive) | > 100 µM (inactive) | 
2 | c1ccc2c(c1)ccn2CCc1c[nH]c2ccccc12 | > 10 µM (inactive) | > 10 µM (inactive) | > 10 µM (inactive) | > 10 µM (inactive) | > 10 µM (inactive) | > 10 µM (inactive) | > 10 µM (inactive) | > 10 µM (inactive) | > 10 µM (inactive) | > 10 µM (inactive) | > 10 µM (inactive) | > 10 µM (inactive) |  | > 10 µM (inactive) | > 10 µM (inactive) | > 10 µM (inactive) | > 10 µM (inactive) | > 10 µM (inactive) | > 10 µM (inactive) | 8.07 µM (inactive)
3 | CCCCCCNc1n[nH]c(=O)c2c1nnn2Cc1ccccc1 | > 100 µM (inactive) | > 100 µM (inactive) | > 100 µM (inactive) | > 100 µM (inactive) | > 100 µM (inactive) | > 100 µM (inactive) | > 100 µM (inactive) | > 100 µM (inactive) | > 100 µM (inactive) | > 100 µM (inactive) | > 100 µM (inactive) | > 100 µM (inactive) |  | > 100 µM (inactive) | > 100 µM (inactive) | > 100 µM (inactive) |  | > 100 µM (inactive) |  | 
4 | CN1CCN(C(=S)N(C(=O)c2ccco2)c2ccccc2)CC1 |  | > 100 µM (inactive) | > 100 µM (inactive) | > 100 µM (inactive) | > 100 µM (inactive) | > 100 µM (inactive) | > 100 µM (inactive) | > 100 µM (inactive) | > 100 µM (inactive) | > 100 µM (inactive) |  | > 100 µM (inactive) |  | > 100 µM (inactive) | > 100 µM (inactive) | > 100 µM (inactive) | > 100 µM (inactive) | > 100 µM (inactive) |  | > 100 µM (inactive)
5 | CCOC(=O)c1cn2c(n1)sc1cc(OC)ccc12 | 5.42 µM (inactive) | 6.21 µM (inactive) | 1.18 µM (inactive) | 14.7 µM (inactive) | 80.9 µM (inactive) | 3.85 µM (inactive) | 5.28 µM (inactive) | 5.13 µM (inactive) | 37.3 µM (inactive) | > 69.7 µM (inactive) | 13 µM (inactive) |  | 46.3 µM (inactive) | 7.38 µM (inactive) | 27.6 µM (inactive) | > 100 µM (inactive) | 27.4 µM (inactive) | 2.72 µM (inactive) | 30.1 µM (inactive) | 25.1 µM (inactive)
6 | O=C(CC(C(=O)c1cccs1)c1ccsc1)c1cccs1 (stereo unspecified) | 29.9 µM (inactive) | > 100 µM (inactive) | 29.1 µM (inactive) | > 100 µM (inactive) | > 100 µM (inactive) | 45 µM (inactive) | > 10 µM (inactive) | 52.2 µM (inactive) | > 100 µM (inactive) | 81.8 µM (inactive) | > 100 µM (inactive) |  | 38.6 µM (inactive) | 91 µM (inactive) | > 100 µM (inactive) | 81.5 µM (inactive) | > 100 µM (inactive) | 47.3 µM (inactive) | 61.9 µM (inactive) | > 100 µM (inactive)
7 | COC(=O)[C@@]12C(=O)C(C)C(=O)[C@]1(C)C(C)=C[C@H]1[C@]3(C=O)CC[C@H](OC(C)=O)C(C)(C)[C@H]3CC[C@@]12C (stereo partly specified) | > 100 µM (inactive) | > 100 µM (inactive) | 97.3 µM (inactive) | > 100 µM (inactive) | > 100 µM (inactive) | > 100 µM (inactive) | > 100 µM (inactive) |  | > 100 µM (inactive) | > 100 µM (inactive) | > 100 µM (inactive) | 17.7 µM (inactive) | > 100 µM (inactive) | > 100 µM (inactive) | > 100 µM (inactive) | > 100 µM (inactive) | > 100 µM (inactive) | > 100 µM (inactive) | > 100 µM (inactive) | > 100 µM (inactive)
8 | O=c1[nH]c(Nc2nc3ccccc3[nH]2)nc(O)c1-c1ccccc1 | > 100 µM (inactive) | > 100 µM (inactive) | > 100 µM (inactive) | > 100 µM (inactive) | > 100 µM (inactive) | > 100 µM (inactive) | > 100 µM (inactive) | > 100 µM (inactive) | > 100 µM (inactive) | > 100 µM (inactive) | > 100 µM (inactive) |  | > 100 µM (inactive) | > 100 µM (inactive) | > 100 µM (inactive) | > 100 µM (inactive) | > 100 µM (inactive) | > 100 µM (inactive) | > 100 µM (inactive) | > 100 µM (inactive)
9 | Cc1ccc(S(=O)(=O)NC(=O)NC(Cc2ccc(O)c(O)c2)C(=O)O)cc1 (stereo unspecified) | > 100 µM (inactive) | 81.8 µM (inactive) | > 100 µM (inactive) | > 100 µM (inactive) | > 100 µM (inactive) | > 100 µM (inactive) | > 100 µM (inactive) | > 100 µM (inactive) | > 100 µM (inactive) | > 100 µM (inactive) | > 100 µM (inactive) | > 100 µM (inactive) | > 100 µM (inactive) | > 100 µM (inactive) | > 100 µM (inactive) | > 100 µM (inactive) | 0.745 µM (active) | > 100 µM (inactive) |  | > 100 µM (inactive)
10 | CCCCC(=O)Nc1ccc2c(C)cc(-c3ccc(-c4cc(-c5ccc(C)cc5)cc(-c5ccc(-c6cc(C)c7ccc(NC(=O)CCCC)nc7n6)cc5)n4)cc3)nc2n1 | > 100 µM (inactive) |  | > 100 µM (inactive) | > 100 µM (inactive) | > 100 µM (inactive) | > 100 µM (inactive) | > 100 µM (inactive) | > 100 µM (inactive) | > 100 µM (inactive) | > 100 µM (inactive) | > 100 µM (inactive) |  | > 100 µM (inactive) | > 100 µM (inactive) | > 100 µM (inactive) | > 100 µM (inactive) | > 100 µM (inactive) | > 100 µM (inactive) | > 100 µM (inactive) | 
11 | CC(C)=CCC/C(C)=C/CC/C(C)=C/CC/C(C)=C/CC/C(C)=C\CC/C(C)=C/CC/C(C)=C/CC/C(C)=C/Cc1cc(O)ccc1O | 0.561 µM (active) | 1.15 µM (inactive) | 0.39 µM (active) | 9.27 µM (inactive) | 0.387 µM (active) | 0.573 µM (active) | 0.213 µM (active) | 0.126 µM (active) | 20.6 µM (inactive) | 1.98 µM (inactive) | 6.03 µM (inactive) |  | 0.993 µM (active) | 1.33 µM (inactive) | 0.292 µM (active) | 0.424 µM (active) | 2.01 µM (inactive) | 0.294 µM (active) | 4.06 µM (inactive) | 2.02 µM (inactive)
